Measured values as given in patent publication US4933354A, “2-pyrrolidone-5-carboxylic acid compounds useful for the treatment of mental disorders” (Kissei Pharmaceutical Co., Ltd., priority 1987, dated 1990).

How the values were obtained:
ECS-induced amnesic mice = test: One trial passive avoidance task by step-through test (ECS-induced amnesia); type: in vivo, mice (male, dd-strain); conditions: oral, 1 μmole/mouse, 1 hr before training trial; test 24 hr after training
Experimental: Anti-amnesic effects of the compounds were determined by the following tests. Male mice of dd-strain, weighing 23-30 g, were employed for the experiment, and the test compounds were freshly dissolved in saline and administered orally at a dose of 1 μmole/mouse. (1) One trial passive avoidance task by step-through test A shuttle box composed of a light (7 cm high, 9 cm wide and 15 cm depth) and a dark (12 cm high, 13 cm wide and 15 cm depth) box; the former was lighted using […]-white light fluorescent bar lamp placed at the position of 40 cm from the floor and in the latter the stainless steel floor grids 2.5 mm in diameter were placed at intervals of 4 mm in order to give a foot shock. Both boxes were connected with a gate 3 cm in diameter. As the training trial, each animal was placed in the light box and a foot shock ([…]) was delivered through the floor grid immediately after the animal entered into the dark box, accordingly the animal learned a punishment for the entrance. […] Twenty-four hr after the training trial, the animal was placed again in the light box and step-through (ST) latency, time spent until the animal entered the dark box, was measured. […] The ST-latency on the test trial was measured up to 300 and 600 sec for control and amnesic group, respectively.

Acute toxicity = conditions: mouse, in vivo; male SCL-ICR mice, single shot, lethality at 1 week; route not given
Experimental: The test compounds were administered to male mice of SCL-ICR-strain, 7 weeks age, at several dosage (single shot) and LD50, 50% lethal dose, was estimated from the number of lethal mice at 1 week past to the administration.

Row | SMILES | ST-latency in ECS-induced amnesic mice (ECS-induced amnesic mice) | LD50 at 168 h (Acute toxicity)
1 | O=C1CCC(C(=O)OCc2ccc(Cl)cc2)N1 (centres unmarked) [Compound 1, p-Chlorobenzyl 2-pyrrolidone-5-carboxylate] | prolonged the ST-latency in ECS-induced amnesic mice significantly | > 2590 mg/kg
2 | O=C1CCC(C(=O)OCc2ccccn2)N1 (centres unmarked) [Compound 2, 2-Pyridylmethyl 2-pyrrolidone-5-carboxylate] | – | 1540 mg/kg
3 | O=C1CCC(C(=O)OCc2cccnc2)N1 (centres unmarked) [Compound 3, 3-Pyridylmethyl 2-pyrrolidone-5-carboxylate] | – | > 2590 mg/kg
4 | O=C1CCC(C(=O)OCc2ccncc2)N1 (centres unmarked) [Compound 4, 4-Pyridylmethyl 2-pyrrolidone-5-carboxylate] | – | > 2590 mg/kg
5 | O=C1CCC(C(=O)OCCc2ccccn2)N1 (centres unmarked) [Compound 5, 2-(2-Pyridyl)ethyl 2-pyrrolidone-5-carboxylate] | – | > 2590 mg/kg
6 | O=C1CCC(C(=O)OCCCc2ccccn2)N1 (centres unmarked) [Compound 6, 3-(2-Pyridyl)propyl 2-pyrrolidone-5-carboxylate] | – | < 1250 mg/kg
7 | O=C1CCC(C(=O)NCc2ccccn2)N1 (centres unmarked) [Compound 7, N-(2-Pyridylmethyl)-2-pyrrolidone-5-carboxamide] | – | > 2590 mg/kg
